Data as given in PubChem BioAssay AID248 (DTP/NCI, 2004).
Values joined by “and” are separate entries in the source; they are usually repeats but may differ in a detail not shown here. Equal values may be shown once. Toxic doses and inconclusive results are not listed. Cut-off read from the data, not from the text of the source: active = T/C of 150% or more; inactive = T/C below 125%.

Test system: L1210 leukemia ip in BDF1 mice, survival T/C
Experiment: NCI In Vivo Anticancer Drug Screen. Data for tumor model L1210 Leukemia (intraperitoneal) in B6D2F1 (BDF1) mice
Conditions: endpoint: mean survival time, higher = longer survival
In short: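 Transplantable tumor model; survival measured in treated vs vehicle control mice. Value = treated/control.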

[1] = dose: 100.0 mg/kg/injection, schedule: Q04DX003 (ip), vehicle: saline
[2] = dose: 200.0 mg/kg/injection, schedule: Q04DX003 (ip), vehicle: saline
[3] = dose: 400.0 mg/kg/injection, schedule: Q04DX003 (ip), vehicle: saline
[4] = dose: 75.0 mg/kg/injection, schedule: Q01DX001 (ip), vehicle: saline
[5] = dose: 100.0 mg/kg/injection, schedule: Q01DX009 (ip), vehicle: saline with Tween-80
[6] = dose: 200.0 mg/kg/injection, schedule: Q01DX009 (ip), vehicle: saline with Tween-80
[7] = dose: 100.0 mg/kg/injection, schedule: Q04DX003 (ip), vehicle: saline with Tween-80
[8] = dose: 200.0 mg/kg/injection, schedule: Q04DX003 (ip), vehicle: saline with Tween-80
[9] = dose: 400.0 mg/kg/injection, schedule: Q04DX003 (ip), vehicle: saline with Tween-80

Measured: T/C

CCOc1nc(=O)n(C2CCOC2=O)cc1F (centres undefined)
inactive: dose: 75.0 mg/kg/injection, schedule: Q01DX009 (ip), vehicle: other 103 % of control | [1] 92 % of control | dose: 150.0 mg/kg/injection, schedule: Q01DX009 (ip), vehicle: other 103 % of control | [2] 106 % of control | dose: 300.0 mg/kg/injection, schedule: Q01DX009 (ip), vehicle: other 100 % of control | [3] 95 % of control

Brc1ccccn1
inactive: [4] 105 % of control

N#CC(C#N)N=Nc1ccc(S(=O)(=O)Nc2ccccn2)cc1
inactive: [4] 95 % of control | dose: 150.0 mg/kg/injection, schedule: Q01DX001 (ip), vehicle: saline 90 % of control

CCOC(=O)CNC(=O)OCCOc1ccccc1Cl
inactive: [5] 94 % of control | [6] 98 % of control | dose: 400.0 mg/kg/injection, schedule: Q01DX009 (ip), vehicle: saline with Tween-80 100 % of control

O=C(Nc1ccc(Cl)cc1Cl)c1cc(Cl)cc(Cl)c1Br
inactive: [7] 101 % of control | [8] 92 % of control | [9] 92 % of control

CC(=O)CC(=O)NCc1cccc(C)n1
inactive: [1] 114 % of control | [2] 98 % of control | [3] 103 % of control

[O-][n+]1ccccc1CCSCCc1cccc[n+]1[O-]
inactive: dose: 100.0 mg/kg/injection, schedule: Q01DX001 (ip), vehicle: saline 101 % of control | dose: 200.0 mg/kg/injection, schedule: Q01DX001 (ip), vehicle: saline 88 % of control | dose: 400.0 mg/kg/injection, schedule: Q01DX001 (ip), vehicle: saline 97 % of control

CNc1c(C)n(C)n(-c2ccccc2)c1=O.[Cl][Pd]([Cl])([Cl])[Cl]
inactive: dose: 50.0 mg/kg/injection, schedule: Q04DX003 (ip), vehicle: saline 106 % of control | [1] 111 % of control | [2] 100 % of control

CC1(N=C(N)CSSCC(N)=NC2(C)CCC(C(C)(C)C)CC2)CCC(C(C)(C)C)CC1 (centres undefined)
inactive: dose: 0.7 mg/kg/injection, schedule: Q01DX009 (ip), vehicle: other 93 % of control and 96 % of control | dose: 1.0 mg/kg/injection, schedule: Q01DX001 (ip), vehicle: other 107 % of control | dose: 1.0 mg/kg/injection, schedule: Q01DX009 (ip), vehicle: other 101 % of control and 103 % of control | dose: 1.56 mg/kg/injection, schedule: Q01DX009 (ip), vehicle: other 97 % of control and 101 % of control | dose: 2.0 mg/kg/injection, schedule: Q01DX001 (ip), vehicle: other 105 % of control | dose: 2.35 mg/kg/injection, schedule: Q01DX009 (ip), vehicle: other 105 % of control and 90 % of control | dose: 3.12 mg/kg/injection, schedule: Q01DX009 (ip), vehicle: carboxymethylcellulose (CMC) 112 % of control | dose: 4.0 mg/kg/injection, schedule: Q01DX001 (ip), vehicle: other 111 % of control | dose: 5.0 mg/kg/injection, schedule: Q04DX003 (ip), vehicle: other 95 % of control | dose: 6.25 mg/kg/injection, schedule: Q01DX009 (ip), vehicle: carboxymethylcellulose (CMC) 102 % of control | dose: 6.25 mg/kg/injection, schedule: Q01DX009 (ip), vehicle: other 98 % of control | dose: 10.0 mg/kg/injection, schedule: Q04DX003 (ip), vehicle: other 105 % of control | dose: 12.5 mg/kg/injection, schedule: Q01DX009 (ip), vehicle: other 102 % of control | dose: 12.5 mg/kg/injection, schedule: Q04DX002 (ip), vehicle: other 104 % of control and 90 % of control | dose: 25.0 mg/kg/injection, schedule: Q04DX002 (ip), vehicle: carboxymethylcellulose (CMC) 102 % of control and 112 % of control

CC1=C(OS(=O)(=O)c2ccc(C)cc2)CCCC1=O
inactive: dose: 50.0 mg/kg/injection, schedule: Q01DX009 (ip), vehicle: saline with Tween-80 100 % of control | [5] 100 % of control | [6] 88 % of control

NC(=O)C1OC(CO)C(O)C1O (centres undefined)
inactive: [7] 105 % of control | [8] 94 % of control | [9] 94 % of control

C[C@H]1CP(c2ccccc2)(c2ccccc2)(c2ccccc2)O[C@@]1(C(=O)c1ccccc1)c1ccccc1
inactive: dose: 12.5 mg/kg/injection, schedule: Q04DX003 (ip), vehicle: saline with Tween-80 100 % of control | dose: 25.0 mg/kg/injection, schedule: Q04DX003 (ip), vehicle: saline with Tween-80 100 % of control | dose: 50.0 mg/kg/injection, schedule: Q04DX003 (ip), vehicle: saline with Tween-80 94 % of control

BrC1=C(Br)C(Br)(Br)C(Br)=C1Br
inactive: dose: 10.0 mg/kg/injection, schedule: Q01DX001 (ip), vehicle: saline 101 % of control | dose: 20.0 mg/kg/injection, schedule: Q01DX001 (ip), vehicle: saline 98 % of control

CC1=CC(=O)C(=O)C=C1O
inactive: dose: 50.0 mg/kg/injection, schedule: Q01DX001 (ip), vehicle: water 103 % of control | dose: 100.0 mg/kg/injection, schedule: Q01DX001 (ip), vehicle: water 113 % of control | dose: 200.0 mg/kg/injection, schedule: Q01DX001 (ip), vehicle: water 108 % of control | dose: 400.0 mg/kg/injection, schedule: Q01DX001 (ip), vehicle: water 110 % of control
